Values quoted from earlier work as cited in patent publication US20050095200A1, “Prokinetic drugs assistance to small intestine imaging” (priority 2003, published 2005).
Like-named read-outs stand apart in the source and are kept apart here.

Tests used:
stomach = conditions: for subjects with barium emptied from the stomach after 60 minutes: 3 minutes after intake of barium; for food emptying half-life from the stomach: oral 15 mg Metoclopramide 30 minutes prior to tagged food
[1] = Medline cross-correlation with 12,155 bleeding publications
[2] = for half-life: in vivo
healthy subjects = conditions: about 10 mg Cisapride by mouth
[3] = healthy subjects, about 30 mg/day Cisapride by mouth (10x3)
[4] = manometric measurement, intravenous injection of about 10 mg Cisapride

Compound: COc1cc(N)c(Cl)cc1C(=O)NC1CCN(CCCOc2ccc(F)cc2)CC1OC (stereo not drawn) [Cisapride, CIS-4-AMINO-5-CHLORO-N-(1-(4-FLUOROPHENOXY) PROPYL)3 METHOXY-4-PIPERIDINYL)-2 METHOXYBENZAMIDE MONOHYDRATE]
- change in the number of waves or in the wavelength (duodenum and jejunum; [3]): no change
- increase of amplitude in mmHg in the duodenum and jejunum (duodenum and jejunum; [3]): over 18.4%
- contraction amplitude in the jejunum increased by (duodenum and jejunum; [4]): about 43%
- contraction frequency (duodenum and jejunum; [4]): increased
- stomach emptying t1/2 (stomach; about 10 mg Cisapride by mouth): about 78 min
- stomach emptying time, effect (stomach; about 10 mg Cisapride by mouth): not affected
- emptying indigestible radio-opaque markers during the first hour (stomach; diabetics with gastroparesis, 5 mg Cisapride intravenously): lack of efficiency
- subjects with barium emptied from the stomach after 60 minutes (stomach; intravenous 8 mg Cisapride): 85%
- cases with abdominal discomfort (in vivo): about 16%
- cases with abdominal pain (in vivo): about 4%
- reports of bleeding from the digestive tract caused by the drug [1]: not a single report of bleeding from the digestive tract caused by Cisapride
- intensity of segmentary contraction (small intestine; daily dose of about 10 to 15 mg Cisapride): may be insufficient
- half-life [2]: about 10 hours
- bio-availability ([2]; oral): about 40%
- decrease of transit time of solid food (healthy subjects): about 20%

Compound: CCN(CC)CCNC(=O)c1cc(Cl)c(N)cc1OC [Metoclopramide, AMINO-4 CHLORO-5 N-(DIETHYLAMINO-2 ETHYL) METHOXY-2 BENZAMIDE]
- emptying indigestible radio-opaque markers during the first hour (stomach; diabetics with gastroparesis, 10 mg Metoclopramide intravenously): lack of efficiency
- mean half-life of stomach emptying (stomach; diabetics with gastroparesis, semi-solid tagged substance, 30 mg Metoclopramide per day (3x10), down from 110): 1.12 h
- food emptying half-life from the stomach (stomach; healthy subjects): 1.2 h
- subjects with barium emptied from the stomach after 60 minutes (stomach; intravenous 10 mg Metoclopramide): 93.5%
- food emptying half-life from the stomach (stomach; patients with reflux esophagitis): 0.993 h
- safety profile (intravenous about 10 mg and oral about 20 mg): high safety profile
- reports of bleeding from the digestive tract caused by the drug [1]: not a single description of bleeding damage
- intensity of segmentary contraction (small intestine; about single 20 mg dose of Metoclopramide): may be insufficient
- half-life [2]: about 5 hours
- absorption when taken orally ([2]; oral): rapid and good
- bio-availability ([2]; oral): about 77%
- graph of plasma concentration at various times after oral administration ([2]; oral dose of 10 mg): linear
